Measurements: patent publication US20250075209A1, “RNAS FOR COMPLEMENT INHIBITION” (Apellis Pharmaceuticals, Inc., priority 2021, published 2025)
Oligonucleotides are written 5' to 3', each unit as a sugar letter and its base; * is a phosphorothioate linkage, no mark a phosphodiester; rarer units and linkages stand in square brackets, end groups in braces. Plain capitals give the bases only. m = 2'-O-methyl; f = 2'-fluoro

System: factor B mRNA transcript
Experiment: Knockdown of factor B expression in HepG2 cells using siRNAs, dose response experiments (DRC)
Type: cell-based, human
Conditions: for Max Factor B inhibition (%): dose response up to 100 nM
Protocol: HepG2 cells were obtained from ATCC (ATCC in partnership with LGC Standards, Wesel, Germany, cat. #ATCC-HB-8065) and cultured in MEM Eagle (#M2279, Sigma-Aldrich, Germany), supplemented to contain 10% fetal calf serum (#1248D, Biochrom GmbH, Berlin, Germany), 1×non-essential amino acids (#K0293; Biochrom, Berlin, Germany), 4 mM L-Glutamine (#K0283, Biochrom, Berlin, Germany) and 100 U/ml Penicillin/100 μg/ml Streptomycin (#A2213, Biochrom GmbH, Berlin, Germany) at 37° C. in an atmosphere with 5% CO2 in a humidified incubator.
24 siRNAs were designed and synthesized to target different regions of the factor B mRNA transcript. In this experiment, the sense strand of each siRNA contained 18 nucleotides identical to a target region sequence on the factor B transcript (SEQ ID NO: 75), and one additional adenine nucleotide at the 3′ end. Additionally, in this experiment, the antisense strand contained 18 nucleotides complementary to a target region sequence on the factor B transcript (SEQ ID NO: 75), and one additional uracil nucleotide at the 5′ end, and 2 additional uracil nucleotides at the 3′ end.
Transfection of siRNA was carried out with Lipofectamine RNAiMax (Invitrogen/Life Technologies, Karlsruhe, Germany) according to manufacturer's instructions for reverse transfection.
Each siRNA was tested using dose response experiments (DRC) in HepG2 cells. Dose-response experiments were done with siRNA in 10 concentrations transfected in quadruplicates, starting at 100 nM in 6-fold dilutions steps down to ˜10 fM. Mock transfected cells served as negative controls.
For each well, the target mRNA level was normalized to the respective GAPDH mRNA level. The activity of a given siRNA was expressed as percent mRNA concentration of the respective target (normalized to GAPDH mRNA) in treated cells, relative to the target mRNA concentration (normalized to GAPDH mRNA) averaged across mock transfected wells (DRCs).
Dose response experiments described above were repeated in a subset of siRNAs shown in Table 9, specifically siRNAs 2, 7, 8, and 3.

[1] = additional (repeated) dose response experiments, Table 10
[2] = reverse transfection, 10 concentrations from 100 nM in 6-fold dilutions, factor B mRNA normalized to GAPDH, relative to mock, Table 8

Substance	IC20 [1]	IC50 [1]	IC80 [1]	Max KD [%] [1]	Max Factor B inhibition (%) (Table 8)	IC20 [2]	IC50 [2]	IC80 [2]
3 (sense mU*mU*fCmUmGmGfCfUfUmCmUfAmCmCmCmGfUmAmA; antisense mU*fU*mAmCmGmGmGmUmAmGmAmAmGfCmCmAmGmAmA*mU*mU; siRNA) [compound 3]	0.0722 nM	0.204 nM	0.886 nM	87%	89.76%	0.02 nM	0.29 nM	12 nM
8 (sense mA*mA*fGmUmGmUfCfUfAmGmUfCmAmAmCmUfUmAmA; antisense mU*fU*mAmAmGmUmUmGmAmCmUmAmGfAmCmAmCmUmU*mU*mU; siRNA) [compound 8]	0.0889 nM	0.271 nM	–	76.2%	82.24%	–	0.16 nM	717 nM
5 (sense mG*mG*fGmGmAmGfUfAfGmUmGfGmAmUmGmUfCmUmA; antisense mU*fA*mGmAmCmAmUmCmCmAmCmUmAfCmUmCmCmCmC*mU*mU; siRNA) [compound 5]	–	–	–	–	86.90%	0.1 nM	0.67 nM	9.65 nM
24 (sense mU*mU*fCmCmGmAfCfUfUmCmUfCmCmAmAmGfAmGmA; antisense mU*fC*mUmCmUmUmGmGmAmGmAmAmGfUmCmGmGmAmA*mU*mU; siRNA) [compound 24]	–	–	–	–	61.56%	0.51 nM	2.76 nM	–
20 (sense mU*mU*fUmAmUmGfAfCfUmAmUfGmAmCmGmUfUmGmA; antisense mU*fC*mAmAmCmGmUmCmAmUmAmGmUfCmAmUmAmAmA*mU*mU; siRNA) [compound 20]	–	–	–	–	74.02%	1.1 nM	3.52 nM	–
14 (sense mG*mG*fAmGmCmCfAfAfAmAmAfGmUmGmUmCfUmAmA; antisense mU*fU*mAmGmAmCmAmCmUmUmUmUmUfGmGmCmUmCmC*mU*mU; siRNA) [compound 14]	–	–	–	–	79.20%	0.22 nM	1.3 nM	–
15 (sense mC*mC*fGmAmUmUfAfCfCmAmCfAmAmGmCmAfAmCmA; antisense mU*fG*mUmUmGmCmUmUmGmUmGmGmUfAmAmUmCmGmG*mU*mU; siRNA) [compound 15]	–	–	–	–	78.63%	1.7 nM	6.31 nM	–
6 (sense mU*mG*fUmGmGmUfGfUfCmUmGfAmGmUmAmCfUmUmA; antisense mU*fA*mAmGmUmAmCmUmCmAmGmAmCfAmCmCmAmCmA*mU*mU; siRNA) [compound 6]	–	–	–	–	85.34%	0.03 nM	0.37 nM	16.1 nM
11 (sense mA*mC*fCmAmUmAfGfAfAmGmGfAmGmUmCmGfAmUmA; antisense mU*fA*mUmCmGmAmCmUmCmCmUmUmCfUmAmUmGmGmU*mU*mU; siRNA) [compound 11]	–	–	–	–	81.08%	0.01 nM	0.26 nM	2350 nM
7 (sense mU*mA*fCmGmUmGfUfGfUmCmCfUmUmCmUmGfGmCmA; antisense mU*fG*mCmCmAmGmAmAmGmGmAmCmAfCmAmCmGmUmA*mU*mU; siRNA) [compound 7]	0.026 nM	0.103 nM	0.868 nM	83.5%	82.44%	–	0.02 nM	670 nM
10 (sense mC*mU*fCmGmGmUfUfCfCmUmUfUmGmUmAmCfUmGmA; antisense mU*fC*mAmGmUmAmCmAmAmAmGmGmAfAmCmCmGmAmG*mU*mU; siRNA) [compound 10]	–	–	–	–	81.72%	0.43 nM	1.7 nM	31.6 nM
18 (sense mC*mA*fGmCmGmAfUfCfUmGmUfGmAmCmAmAfCmGmA; antisense mU*fC*mGmUmUmGmUmCmAmCmAmGmAfUmCmGmCmUmG*mU*mU; siRNA) [compound 18]	–	–	–	–	75.45%	0.3 nM	2.02 nM	–
13 (sense mA*mC*fGmUmUmGfCfCfCmUmGfAmUmCmAmAfGmCmA; antisense mU*fG*mCmUmUmGmAmUmCmAmGmGmGfCmAmAmCmGmU*mU*mU; siRNA) [compound 13]	–	–	–	–	80.41%	0.06 nM	0.69 nM	1340 nM
2 (sense mC*mU*fUmCmUmGfGfCfUmUmCfUmAmCmCmCfGmUmA; antisense mU*fA*mCmGmGmGmUmAmGmAmAmGmCfCmAmGmAmAmG*mU*mU; siRNA) [compound 2]	0.021 nM	0.0887 nM	0.865 nM	83.5%	90.18%	–	–	7.07 nM
12 (sense mG*mG*fAmUmUmAfUfCfUmGmGfAmUmGmUmCfUmAmA; antisense mU*fU*mAmGmAmCmAmUmCmCmAmGmAfUmAmAmUmCmC*mU*mU; siRNA) [compound 12]	–	–	–	–	80.54%	0.13 nM	0.89 nM	183 nM
21 (sense mC*mC*fUmUmGmAfUfAfGmUmUfCmAmCmAmAfGmAmA; antisense mU*fU*mCmUmUmGmUmGmAmAmCmUmAfUmCmAmAmGmG*mU*mU; siRNA) [compound 21]	–	–	–	–	72.43%	0.12 nM	1.63 nM	–
9 (sense mC*mU*fAmUmGmAfCfGfUmUmGfCmCmCmUmGfAmUmA; antisense mU*fA*mUmCmAmGmGmGmCmAmAmCmGfUmCmAmUmAmG*mU*mU; siRNA) [compound 9]	–	–	–	–	82.07%	0.01 nM	0.27 nM	142 nM
17 (sense mC*mU*fCmAmCmGfCfCfCmGmAfGmAmCmUmUfUmCmA; antisense mU*fG*mAmAmAmGmUmCmUmCmGmGmGfCmGmUmGmAmG*mU*mU; siRNA) [compound 17]	–	–	–	–	75.50%	0.07 nM	0.85 nM	–
23 (sense mU*mU*fUmUmAmUfGfAfCmUmAfUmGmAmCmGfUmUmA; antisense mU*fA*mAmCmGmUmCmAmUmAmGmUmCfAmUmAmAmAmA*mU*mU; siRNA) [compound 23]	–	–	–	–	68.74%	0.22 nM	2.44 nM	–
19 (sense mC*mU*fAmCmCmAfCfUfUmGmCfCmAmGmCmAfAmCmA; antisense mU*fG*mUmUmGmCmUmGmGmCmAmAmGfUmGmGmUmAmG*mU*mU; siRNA) [compound 19]	–	–	–	–	74.03%	0.16 nM	1.12 nM	–
16 (sense mA*mA*fUmGmCmAfGfAfCmUmGfGmGmUmCmAfCmGmA; antisense mU*fC*mGmUmGmAmCmCmCmAmGmUmCfUmGmCmAmUmU*mU*mU; siRNA) [compound 16]	–	–	–	–	77.05%	0.01 nM	0.3 nM	–
4 (sense mC*mU*fGmCmUmAfUfGfAmCmGfGmUmUmAmCfAmCmA; antisense mU*fG*mUmGmUmAmAmCmCmGmUmCmAfUmAmGmCmAmG*mU*mU; siRNA) [compound 4]	–	–	–	–	88.29%	0.05 nM	0.48 nM	10.9 nM
1 (sense mC*mC*fUmAmCmUfAfCfAmAmUfGmUmGmAmGfUmGmA; antisense mU*fC*mAmCmUmCmAmCmAmUmUmGmUfAmGmUmAmGmG*mU*mU; siRNA) [compound 1]	–	–	–	–	91.04%	0.03 nM	0.54 nM	19.8 nM
22 (sense mC*mU*fCmAmAmGfAfGfGmUmGfGmCmCmGmAfAmGmA; antisense mU*fC*mUmUmCmGmGmCmCmAmCmCmUfCmUmUmGmAmG*mU*mU; siRNA) [compound 22]	–	–	–	–	72.01%	0.32 nM	2.09 nM	–
